# Results published in patent US5041542A, “Substituted pyrimido[5,4-d]pyrimidine nucleosides” (Nucleic Acid Research Institute, priority 1988, dated 1991).
# Read-outs that look alike come from different tables or passages of the source.
# How the values were obtained:
# physchem = conditions: water
# L1210 cells = experiment: In vitro cytotoxicity, L1210; assay type: cell-based, murine; conditions: Mus musculus, L1210, 72 h; 3 days, 37° C., MTT; read-out: Antitumor (ID50) L1210
# Experimental: (§1) ^b (ID50) inhibitory dose is the μM concentration of the
# (§2) In vitro cytotoxicity analysis was performed by using the following cell lines: L1210 (a murine leukemia), WI-L2 (a human B-lymphoblast), and LoVo/L (a human colon carcinoma). Cells were grown in RPMI 1640 medium supplemented with 10% fetal bovine serum, 20 mM HEPES, pH 7.4, and 2 mM glutamine. The cytotoxicity determinations were carried out in 96-well microtiter dishes containing a starting number of 5-10×10^3 cells per well and 0.1-100 μM concentrations of the compounds in triplicate wells. L1210 and WI-L2 were incubated with the compounds at 37° C. for 3 days, while Lovo/L was incubated for 5 days. After this time period, 25 μL of 4 mg/mL 3-(4,5-dimethylthiazol-2-yl)-2,5-diphenyltetrazolium bromide was added to each well and incubation was continued for 2 to 5 h. The formazan product was dissolved in isopropanol containing 0.04M HCl and the absorbance was determined with a microtiter plate reader. The absorbance was proportional to the number of cells.
# [1] = system: parainfluenza 3 (C243 strain); experiment: In vitro antiviral activity, parainfluenza 3 (virus rating); assay type: cell-based; conditions: Vero cells; VR >1.0 marked, 0.5 to 0.9 moderate, <0.5 weak or no activity
# L1210 = experiment: In vivo antitumor activity against L1210 in BDF1 mice; conditions: qd; for T/C: day 1, at maximum soluble dosage
# Experimental: Compounds 8, 11, 14 and 17 were comparatively evaluated in vivo for efficacy against L1210 in BDF1 mice.
# Mice were inoculated i.p. with 1×10^6 L1210 cells 24 hr before qd, day 1, i.p. drug delivery. Drugs were solubilized in water and delivered at the rate of 0.01 ml/g mouse weight. Then control mice/drug were injected i.p. with equivalent volumes of a 0.9% solution of NaCl, the means and standard deviations reflecting the postinoculation life spans of these mice ranged from 6.30±0.48 to 6.60±0.97 days.
# [2] = system: Herpes 2, parainfluenza 3 and Vaccinia; assay type: cell-based; conditions: tested in parallel with ARPP (8)
# [3] = system: herpes simplex virus type 2 (MS strain); experiment: In vitro antiviral activity, herpes simplex virus type 2 (virus rating); assay type: cell-based; conditions: Vero cells; VR >1.0 marked, 0.5 to 0.9 moderate, <0.5 weak or no activity
# LoVo/L cells = experiment: In vitro cytotoxicity, LoVo/L; assay type: cell-based; conditions: Homo sapiens, 120 h, 5 days, 37° C., MTT, read-out: Antitumor (ID50) LoVo/L
# Experimental: as §1, §2
# [4] = system: vaccinia virus (Elstree strain); assay type: cell-based; conditions: HeLa cells; VR >1.0 marked, 0.5 to 0.9 moderate, <0.5 weak or no activity
# WI-L2 cells = experiment: In vitro cytotoxicity, WI-L2; assay type: cell-based; conditions: Homo sapiens, WIL2, 72 h; 3 days, 37° C., MTT; read-out: Antitumor (ID50) WI-L2
# Experimental: as §1, §2
# [5] = system: de novo purine biosynthesis in WI-L2 cells; experiment: Inhibition of de novo purine biosynthesis ([14C]formate incorporation); assay type: cell-based, human; conditions: for activity at 50 µM: pre-incubation 8 h
# Experimental: Compounds of the invention were also tested for certain biochemical properties. Compounds of the invention were studied for their effect on de novo purine biosynthesis by observing inhibition of incorporation of [^14 C]formate into the acid-soluble fraction of WI-L2 cells (see Table 3). […] However, 8 and 14 (100 μM) were not cytotoxic to WI-L2 cells deficient in adenosine kinase activity.
# A normal lymphoblast phenotype B cell line, WI-L2 was used. The enzyme-deficient cell lines used in vitro are: HPRT-, a hypoxanthine-guanine phosphorbosyl transferase (EC 2.4.2.8)deficient line and AK-, an adenosine kinase (EC 2.7.1.20)deficient line. Cells were cultured in RPMI 1640 medium containing 5% dialyzed fetal bovine serum, 20 mM Na HEPES, pH 7.5 and 2 mM glutamine and maintained in log phase growth between 0.5 and 12×10^5 cells/mL. The mutant cell lines were periodically reselected by treatment with 6-thioguanine (HPRT-) or tubercidin (AK-).
# (§3) . Inhibition of de novo purine biosynthesis: WI-L2 or adenosine kinase-deficient cells were preincubated at 37° C. with drug for various time periods prior to labeling with [^14 C]formate. Enzyme Assays: Adenosine kinase inhibition studies were accomplished by the filter binding assay method. Inhibition studies were done at 37° C. with an assay mixture containing 4 mM ATP, 1.5 mM MgCl2, 5 or 10 μM [8-^14 C] adenosine (50 mCi/mmol) and 100 mM Tris-maleate, pH 5.5. To prevent the enzymatic breakdown of adenosine, erythro-9-(2-hydroxy-3-nonyl)adenine (EHNA) was added to the cell-free WI-L2 lysate to give 5 μM final assay concentration. The assay was started by the addition of protein. The amount of enzyme, time of assay and sampling volume were adjusted to give acceptable conversion of [8-^14 C] adenosine to [8-^14 C]AMP. Each DE-81 filter was spotted with a constant sampling volume and immersed in H 2 O (4 L) to terminate the reaction. Filters were washed three times with H2 O (4 L) and once with EtOH (100 mL). Dry filters were placed in scintillation vials and radioactivity was counted with 10 mL toluene-based scintillation cocktail.
# De novo purine biosynthesis was measured by the incorporation of ^14 C-formate into cellular purine nucleotides or excreted purines after pre-incubation with compound.
# [6] = delivered at 0.01 ml/g mouse weight
# [7] = system: pyrimidine (CTP + UTP) and purine (ATP + GTP) nucleoside triphosphates; experiment: 14C-bicarbonate incorporation into acid soluble pyrimidine and purine nucleoside triphosphates; assay type: cell-based
# Text: Comparative effect of compounds on ^14 C-bicarbonate
# incorporation into acid soluble pyrimidine (PyrTP,
# CTP + UTP) and purine (PurTP, ATP + GTP) nucleoside
# [8] = Lethal toxicity in treated mice; conditions: i.p., maximum soluble dosage
# [9] = Anomerization in aqueous solution (reverse-phase HPLC); assay type: physicochemical
# Experimental: This would be expected where the rate of anomerization is slow compared to the rate of deamination.
# The compounds of the invention are capable of crossing the cell membrane, and activated to the 5'-phosphate, thus causing the inhibition of the de novo purine biosynthesis.
# as §3, with “HPLC Analysis: Sample components were separated with an LKB model 2150 gradient HPLC system at ambient temperature on an Altex Ultrashere-ODS reverse phase column (Beckman) developed with a linear gradient of buffer A (10 mM KPO4 ', pH 3.83) to 20% component B (60% aqueous CH3 CN) at a combined flow rate of 1.0 mL/min over 15 min. Ultraviolet (UV) absorbance was monitored with an LKB model 2140 diode array detector. Inhibition of” for “. Inhibition of”
# [10] = Homo sapiens, WIL2, cell, read-out: de novo purine biosynthesis, % of control, cell, 50 μM
# [11] = Homo sapiens, WIL2, media (excreted purines), read-out: de novo purine biosynthesis, % of control, media, 50 μM
# [12] = read-out: PurTP, % control, 50.0 μM
# [13] = read-out: PydTP, % control, 50.0 μM
Compound,solubility (physchem) [µg/mL],IC50 (L1210 cells) [nM],Antiviral (VR) PI3 [1] [VR],T/C (L1210),Antiviral activity in cell culture [2],Antiviral (VR) HSV2 [3] [VR],IC50 (LoVo/L cells) [nM],Antiviral (VR) VV [4] [VR],IC50 (WI-L2 cells) [nM],Maximum watersoluble dosage [6] [mg/kg/inj.],"activity at 50 µM [5, 10] [%]","activity at 50 µM [5, 11] [%]","PurTP, 50.0 μM [7] [cpm/10^6 cells]","PyrTP, 50.0 μM [7] [cpm/10^6 cells]","CAA (carbamyl aspartate), 50.0 μM ([7]; zero = undetectable) [cpm/10^6 cells]","activity at 50 µM [7, 12] [%]","activity at 50 µM [7, 13] [%]",also measured
"COc1ncnc2c(N[C@H]3O[C@H](CO)[C@@H](O)[C@H]3O)ncnc12 [Compound 17, 4-Methoxy-8-(α-D-ribofuranosylamino)pyrimido[5,4-d]pyrimidine]",3700,2900,0.7,116,antiviral activity,0.1,18700,0.9,2500,37,,,,,,,,"Postinoculation Lifespan (% T/C), 37 mg/kg/inj. (L1210; 37 mg/kg/inj. i.p., day 1): 116 % T/C; purine de novo assay, short term ([5]; 4 h): inactive; activity at 25 µM ([5]; Homo sapiens, WIL2, cell, 25 μM, pre-incubation 4 h, read-out: de novo purine biosynthesis, % of control, cell, 25 μM): 98.2%; purine de novo assay, longer incubation times ([5]; separate assays, longer incubation times): demonstrated the inhibitory activity"
"Nc1ncnc2c(N[C@@H]3O[C@H](CO)[C@@H](O)[C@H]3O)nc(Cl)nc12 [Compound 37, 4-Amino-6-chloro-8-(β-D-ribofuranosylamino)pyrimido[5,4-d]pyrimidine]",,,,,,,,,,,16.4,43.4,,,,,,"PurTP, 15.0 μM ([7]; 15.0 μM): 39833 cpm/10^6 cells; PyrTP, 15.0 μM ([7]; 15.0 μM): 13454 cpm/10^6 cells; CAA (carbamyl aspartate), 15.0 μM ([7]; 15.0 μM, zero = undetectable): 0 cpm/10^6 cells; activity at 15 µM ([7]; read-out: PurTP, % control, 15.0 μM): 66.9%; activity at 15 µM ([7]; read-out: PydTP, % control, 15.0 μM): 62%"
"CN(C)c1ncnc2c(N[C@@H]3O[C@H](CO)[C@@H](O)[C@H]3O)ncnc12 [Compound 27, 4-Dimethylamino-8-(β-D-ribofuranosylamino)pyrimido[5,4-d]pyrimidine]",,,,,,,,,,,50.7,85.8,40581,10177,0,68.2,46.9,
"Nc1ncnc2c(N[C@H]3O[C@H](CO)[C@@H](O)[C@H]3O)ncnc12 [Compound 11, 4-Amino-8-(α-D-ribofuranosylamino)pyrimido[5,4-d]pyrimidine]",2200,380,1.4,138,antiviral activity,0.2,1000,1.0,250,22,,,,,,,,"Postinoculation Lifespan (% T/C), 22 mg/kg/inj. (L1210; 22 mg/kg/inj. i.p., day 1): 138 % T/C; lethal toxicity at maximum soluble dosage [8]: Neither drug was lethally toxic at its maximum soluble dosage"
"Nc1nc(N[C@@H]2O[C@H](CO)[C@@H](O)[C@H]2O)c2ncnc(N)c2n1 [Compound 35, 4,6-Diamino-8-(β -D-ribofuranosylamino)pyrimido[5,4-d]pyrimidine]",,,,,,,,,,,91.2,89.8,58130,15267,0,97.7,70.4,
"O=c1[nH]cnc2c(N[C@@H]3O[C@H](CO)[C@@H](O)[C@H]3O)ncnc12 [Compound 21, 8-(β-D-Ribofuranosylamino)pyrimido[5,4-d]pyrimidin-4(3H)-one]",,,,,,,,,,,98.2,106,54484,15691,0,91.5,72.3,anomeric equilibration in solution [9]: equilibrated from pure β-anomer into a mixture of α- and β-anomers
